We go through two compounds from ChEMBL document CHEMBL1135885, “Designing small, nonsugar activators of antithrombin using hydropathic interaction analyses” (J Med Chem, 2002).

Series [1] is described as follows: Equilibrium constants and K activator was determined. The class given is ADME.
Series [2] is described as follows: delta f max at pH 6.0. The class given is ADME.
Series [3] can be described thus: delta f max at pH 7.4. The series is classed as ADME.
Series [4] is described as follows: Catalysed acceleration of antithrombin inhibition of factor Xa (K-uncat = 120 +/- 10 M-1.s-1).
A short description of series [5]: The equilibrium dissociation constant antithrombin interaction was determined at pH 7.4. The class given is ADME.
Series [6] can be described thus: The second order rate constant for uncatalysed inhibition of factor Xa by antithrombin was determined for the compound at […].
The nature of series [7]: The equilibrium dissociation constant was measured experimentally for the compounds interaction with antithrombin. The class given is ADME.

Regarding `CO[C@H]1O[C@H](COS(=O)(=O)O)[C@@H](OC2O[C@H](C(=O)O)[C@@H](OC3O[C@H](COS(=O)(=O)O)[C@@H](O)[C@H](O)[C@H]3NS(=O)(=O)O)[C@H](O)[C@H]2O)[C@H](OS(=O)(=O)O)[C@H]1NS(=O)(=O)O` (stereo partly drawn) [HEPARIN TRISACCHARIDE DEF], the K act in series [1] came out at 45000 M⁻¹ s⁻¹. Further, the “Delta Fmax” value in series [2] and in series [3] was 34% throughout. The compound further yielded a Fold_increase in series [4] of 320. Moreover, the Kd in series [5] stood at 66 µM; in series [6] it was 2 µM.

In series [7], `O=S(=O)(O)Oc1cc2c(c(OS(=O)(=O)O)c1)C[C@@H](OS(=O)(=O)O)[C@@H](c1ccc(OS(=O)(=O)O)c(OS(=O)(=O)O)c1)O2` came in with a Kd of 10.5 µM. In series [6], the Kuncat turned out to be 120 M⁻¹ s⁻¹.
